We go through 17 compounds from PubChem BioAssay (NCI).

Several values for one entry are separate records, joined by “and”; a condition that tells them apart may be missing. Equal values may be shown once.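 Results reflect a 48-hour exposure of cells in 96-well plates to compound at five concentrations. GI50 is the concentration that inhibits growth by half. At the TGI there is no net growth.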

Some test systems named below: IGROV1 ovarian; SN12C renal; CAKI-1 renal; MOLT-4 leukemia; SK-MEL-28 melanoma; HOP-92 NSCLC; HS 578T breast; MDA-MB-231 breast; MCF7 breast.
What all share (test): inhibition of tumour cell growth, NCI panel, 48 h

Take `O=C1C(=C([O-])c2ccccc2)C(=O)c2ccccc21.O=C1C(=C([O-])c2ccccc2)C(=O)c2ccccc21.[Mn+2]`: the GI50 with IGROV1 ovarian was over 100 µM; in the test on SN12C renal it was 91.6 µM; in the test with CAKI-1 renal, over 100 µM; in the test on MOLT-4 leukemia it was over 100 µM; in the test with SK-MEL-28 melanoma it was 93.8 µM. The TGI with IGROV1 ovarian, in the test with SN12C renal, in the test on CAKI-1 renal, in the test on MOLT-4 leukemia and in the test with SK-MEL-28 melanoma was over 100 µM each time.

With `O=C(/C=C/c1ccccc1O)c1ccc([N+](=O)[O-])cc1`, the TGI was 26.3 µM in the test with IGROV1 ovarian; over 100 µM in the test on HOP-92 NSCLC; 30.8 µM in the test with SN12C renal; 39.1 µM with CAKI-1 renal; 76.6 µM with MOLT-4 leukemia; 94.4 µM in the test on SK-MEL-28 melanoma.

As to `NS(=O)(=O)c1ccc(NC(=O)Cc2nc3ccccc3s2)cc1`, the TGI in the test with IGROV1 ovarian came to 29.9 µM; with HOP-92 NSCLC, 29.8 µM; in the test on SN12C renal, 30.9 µM; in the test on CAKI-1 renal, 30.5 µM; in the test on MOLT-4 leukemia, 58.6 µM; in the test on SK-MEL-28 melanoma it was 32 µM.

As for `Cc1ccc(/C=C(\NC(=O)c2ccccc2)c2nc3ccccc3[nH]2)cc1`, the TGI with IGROV1 ovarian was over 100 µM; with HOP-92 NSCLC it was 86.5 µM; in the test with SN12C renal, over 100 µM; in the test with SK-MEL-28 melanoma, over 100 µM.

On to `CCOc1ccc(/C=C/c2cc(OC)c(OC)c(OC)c2)cc1`, for which the TGI was over 93.8 µM with IGROV1 ovarian; 93.8 µM in the test on HOP-92 NSCLC; over 28 µM in the test with SN12C renal; 24.1 µM in the test with CAKI-1 renal; 44.6 µM with MOLT-4 leukemia; over 100 µM in the test on SK-MEL-28 melanoma.

As to `CC(=O)OCCOCNC(=S)N/N=C/c1cc([N+](=O)[O-])ccc1O`, the TGI with IGROV1 ovarian, with HOP-92 NSCLC, in the test with SN12C renal and in the test with SK-MEL-28 melanoma was over 100 µM throughout.

On to `Clc1cc(Cl)c(OCCCCCCN2CCNCC2)c(Cl)c1`, for which the GI50 in the test on IGROV1 ovarian is 3.07 µM; in the test on HOP-92 NSCLC, 2.32 µM; in the test on HS 578T breast, 3.35 µM; in the test on SN12C renal, 6.42 µM; in the test with MDA-MB-231 breast, 2.17 µM; in the test on CAKI-1 renal, 2.09 µM. Also, the GI50 with MOLT-4 leukemia is 2.04 µM; with MCF7 breast, 1.89 µM; with SK-MEL-28 melanoma, 2.33 µM. Moreover, the TGI in the test with IGROV1 ovarian was found to be 8.43 µM; in the test on HOP-92 NSCLC, 7.64 µM; in the test on HS 578T breast it was 15.2 µM; in the test on SN12C renal it was 23.6 µM; in the test with MDA-MB-231 breast, 4.53 µM; in the test on CAKI-1 renal, 6.39 µM. Further, the TGI in the test on MOLT-4 leukemia amounted to 4.88 µM; with MCF7 breast it was 4.2 µM; in the test on SK-MEL-28 melanoma it was 5.68 µM.

Consider `O=C(Cc1nc2ccccc2o1)C(=O)Nc1cccc(Cl)c1`, for which the TGI in the test on IGROV1 ovarian, in the test with HOP-92 NSCLC, with SN12C renal, in the test on CAKI-1 renal, in the test with MOLT-4 leukemia and in the test on SK-MEL-28 melanoma was over 100 µM throughout.

Take `Cc1[nH]c2ccccc2c1CC/C(=N\Nc1ccccc1)c1ccccc1`: the TGI with IGROV1 ovarian, with CAKI-1 renal, with MOLT-4 leukemia and in the test with SK-MEL-28 melanoma was over 100 µM in each case.

Regarding `c1ccncc1`, the TGI in the test on IGROV1 ovarian, in the test with HOP-92 NSCLC, in the test on SN12C renal, in the test on CAKI-1 renal, with MOLT-4 leukemia and with SK-MEL-28 melanoma was over 100 µM each time.

Regarding `CCOC(=O)C(CCC(N)=O)(CCC(=O)OC)C(=O)OCC`, the TGI in the test with IGROV1 ovarian, with HOP-92 NSCLC, in the test with SN12C renal, in the test on CAKI-1 renal, in the test on MOLT-4 leukemia and in the test on SK-MEL-28 melanoma was over 100 µM in each case.

For `NC1CCCCC1N.O=C1C=C/C(=C(/c2ccc(O)c(Br)c2)c2ccccc2S(=O)(=O)[O-])C=C1Br.O=C1C=C/C(=C(/c2ccc(O)c(Br)c2)c2ccccc2S(=O)(=O)[O-])C=C1Br.[Pt+4]`, the GI50 is 4.17 µM in the test on IGROV1 ovarian, over 100 µM in the test on HOP-92 NSCLC, 3.59 µM with SN12C renal and 2.35 µM in the test with SK-MEL-28 melanoma. In addition, the TGI in the test on IGROV1 ovarian was over 100 µM; in the test on HOP-92 NSCLC, over 100 µM; in the test on SN12C renal, over 100 µM; with SK-MEL-28 melanoma, 38.2 µM.

In the case of `COC(=O)c1ncc2c(=O)[nH]c3ccccc3c2c1C(=O)OC`, the TGI with IGROV1 ovarian, with HOP-92 NSCLC, with SN12C renal, in the test with CAKI-1 renal, with MOLT-4 leukemia and in the test with SK-MEL-28 melanoma was over 100 µM each time.

Take `CC(C)(C)C(=O)Nc1cccc2oc(-c3ccccc3)cc12`: the TGI in the test with IGROV1 ovarian was over 100 µM; in the test with HOP-92 NSCLC, 96.4 µM; with SN12C renal it was over 100 µM; with CAKI-1 renal it was over 100 µM; in the test with MOLT-4 leukemia, over 100 µM; in the test on SK-MEL-28 melanoma, over 100 µM.

For the compound `COc1cccc(-c2cc(=O)c3cc(N4CCOCC4)ccc3[nH]2)c1`, the GI50 is 0.145 µM in the test with IGROV1 ovarian; 0.246 µM in the test on HOP-92 NSCLC; 0.0868 µM in the test with SN12C renal; 0.0338 µM in the test on MOLT-4 leukemia; 0.0275 µM with MCF7 breast; 0.0248 µM in the test with SK-MEL-28 melanoma. For the same compound, the TGI is over 100 µM with IGROV1 ovarian; 0.055 µM with HS 578T breast; over 100 µM with SN12C renal; over 100 µM in the test on CAKI-1 renal; 1.48 µM and 0.17 µM in the test with MOLT-4 leukemia; 20.1 µM with MCF7 breast.

On to `COc1cc(CC2c3cc(OC)c(OC)cc3CCN2C)ccc1O` (stereo unspecified), for which the TGI in the test with SN12C renal, in the test with CAKI-1 renal, with MOLT-4 leukemia and with SK-MEL-28 melanoma was over 100 µM in each case.

`COc1ccc2c3c1OC1C(OC)(OC)C=C[C@@]4(Br)[C@@H](C2)N(CC2CC2)CC[C@]314` (stereo partly specified): the TGI in the test on IGROV1 ovarian was over 100 µM; in the test with HOP-92 NSCLC, 83.9 µM; in the test on HS 578T breast, over 100 µM; with SN12C renal, over 100 µM; with MDA-MB-231 breast it was over 100 µM; with CAKI-1 renal it was over 100 µM. Further, the TGI with MOLT-4 leukemia, in the test with MCF7 breast and in the test on SK-MEL-28 melanoma was over 100 µM throughout.
